These compounds were tested against T1, Human MTHFD2 (Homo sapiens, UniProt P13995) (assay: MTHFD2 Activity Assay (dehydrogenase activity, diaphorase/resazurin coupled fluorescence)). Settings: inhibitory activity (IC50 and/or binding constant); 0.2 nM MTHFD2, 11 concentrations.
T1 construct: residues 36-350 in Uniport ID P13995; His6 (N); made in house; host or cells: E. coli
T1 sequence (P13995 36-350): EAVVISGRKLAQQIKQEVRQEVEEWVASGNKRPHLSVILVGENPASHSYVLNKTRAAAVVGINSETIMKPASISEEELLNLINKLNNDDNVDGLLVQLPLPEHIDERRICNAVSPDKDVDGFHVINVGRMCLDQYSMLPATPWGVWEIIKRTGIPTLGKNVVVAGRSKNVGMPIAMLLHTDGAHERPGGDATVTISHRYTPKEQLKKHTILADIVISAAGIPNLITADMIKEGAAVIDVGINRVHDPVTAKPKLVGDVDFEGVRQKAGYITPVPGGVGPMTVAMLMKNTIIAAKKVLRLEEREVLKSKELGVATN
Format: biochemical
Outline: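 Steps: compound + 0.2 nM enzyme, 15 min, pH 8.0 Hepes buffer; add 70 μM CH2-THF, 1 mM NAD+, 100 μM resazurin, diaphorase; 30 min; quench with EDTA; read fluorescence. Data normalized to DMSO (100%) and no-enzyme (0%) wells.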

Row | SMILES | IC50
1 | Cn1c(=O)n(Cc2ccc(Cl)c(Cl)c2)c(=O)c2[nH]c(NCCCO)nc21 [Example 90, 1-[(3,4-dichlorophenyl)methyl]-8-[(3-hydroxypropyl)amino]-3-methyl-2,3,6,7-tetrahydro-1H-purine-2,6-dione] | 1000 to 5000 nM
2 | Cn1c(N[C@H]2CCC[C@@H]2O)nc2c1c(=O)n(Cc1ccc(Cl)c(Cl)c1)c(=O)n2C [Example 92, 1-[(3,4-dichlorophenyl)methyl]-8-{[(1S,2S)-2-hydroxycyclopentyl]amino}-3,7-dimethyl-2,3,6,7-tetrahydro-1H-purine-2,6-dione] | 10 to 1000 nM
3 | Cn1c(N[C@@H]2CCC[C@H]2O)nc2c1c(=O)n(Cc1ccc(Cl)c(Cl)c1)c(=O)n2C [Example 93, 1-[(3,4-dichlorophenyl)methyl]-8-{[(1R,2R)-2-hydroxycyclopentyl]amino}-3,7-dimethyl-2,3,6,7-tetrahydro-1H-purine-2,6-dione] | 10 to 1000 nM
4 | Cn1c(N[C@H]2CCC[C@H]2O)nc2c1c(=O)n(Cc1ccc(Cl)c(Cl)c1)c(=O)n2C [Example 94, 1-[(3,4-dichlorophenyl)methyl]-8-{[(1S,2R)-2-hydroxycyclopentyl]amino}-3,7-dimethyl-2,3,6,7-tetrahydro-1H-purine-2,6-dione] | 10 to 1000 nM
5 | COc1cc(Cn2c(=O)c3c(nc(NCCCO)n3C)n(C)c2=O)ccc1Cl [Example 96, 1-[(4-chloro-3-methoxyphenyl)methyl]-8-[(3-hydroxypropyl)amino]-3,7-dimethyl-2,3,6,7-tetrahydro-1H-purine-2,6-dione] | 1000 to 5000 nM
6 | Cn1c(NCCCO)nc2[nH]c(=O)n(Cc3ccc(Cl)c(Cl)c3)c(=O)c21 [Example 97, 1-[(3,4-dichlorophenyl)methyl]-8-[(3-hydroxypropyl)amino]-7-methyl-2,3,6,7-tetrahydro-1H-purine-2,6-dione] | 1000 to 5000 nM
7 | CCOC(=O)Cn1c(=O)n(Cc2ccc(Cl)c(Cl)c2)c(=O)c2c1nc(NCCCO)n2C [Example 98, Ethyl 2-(1-(3,4-dichlorobenzyl)-8-((3-hydroxypropyl)amino)-7-methyl-2,6-dioxo-1,2,6,7-tetrahydro-3H-purin-3-yl)acetate] | 5000 to 10000 nM
8 | Cn1c(N[C@H]2CC[C@@H](O)C2)nc2c1c(=O)n(Cc1nc3ccccc3[nH]1)c(=O)n2C [Example 99, 1-((1H-benzo[d]imidazol-2-yl)methyl)-8-((1S,3R)-3-hydroxycyclopentylamino)-3,7-dimethyl-1H-purine-2,6(3H,7H)-dione] | 1000 to 5000 nM
9 | Cn1c(CO)nc2c1c(=O)n(Cc1ccc(Cl)c(Cl)c1)c(=O)n2C [Example 100, 1-(3,4-dichlorobenzyl)-8-(hydroxymethyl)-3,7-dimethyl-1H-purine-2,6(3H,7H)-dione] | 1000 to 5000 nM
10 | Cn1c(CC(=O)O)nc2c1c(=O)n(Cc1ccc(Cl)c(Cl)c1)c(=O)n2C [Example 101, 2-(1-(3,4-dichlorobenzyl)-3,7-dimethyl-2,6-dioxo-2,3,6,7-tetrahydro-1H-purin-8-yl)acetic acid] | 5000 to 10000 nM
11 | Cn1c(NCCS(N)(=O)=O)nc2c1c(=O)n(Cc1ccc(Cl)c(Cl)c1)c(=O)n2C [Example 102, 2-(1-(3,4-dichlorobenzyl)-3,7-dimethyl-2,6-dioxo-2,3,6,7-tetrahydro-1H-purin-8-ylamino)ethanesulfonamide] | 5000 to 10000 nM
12 | COc1cc(Cn2c(=O)c3c(nc(N[C@@H]4CCC[C@H]4O)n3C)n(C)c2=O)ccc1Cl [Example 103, 1-[(4-chloro-3-methoxyphenyl)methyl]-8-{[(1R,2R)-2-hydroxycyclopentyl]amino}-3,7-dimethyl-2,3,6,7-tetrahydro-1H-purine-2,6-dione] | 1000 to 5000 nM
13 | Cn1c(NC[C@@H]2CCCO2)nc2c1c(=O)n(Cc1ccc(Cl)c(Cl)c1)c(=O)n2C [Example 104, (S)-1-(3,4-dichlorobenzyl)-3,7-dimethyl-8-((tetrahydrofuran-2-yl)methylamino)-1H-purine-2,6(3H,7H)-dione] | 1000 to 5000 nM
14 | Cn1c(NC[C@@H]2CCCO2)nc2c1c(=O)n(Cc1ccc(C(F)(F)F)cc1)c(=O)n2C [Example 105, (S)-3,7-dimethyl-8-((tetrahydrofuran-2-yl)methylamino)-1-(4-(trifluoromethyl)benzyl)-1H-purine-2,6(3H,7H)-dione] | > 10000 nM
15 | Cn1c(NCC2(O)CCCCC2)nc2c1c(=O)n(Cc1ccc(Cl)c(Cl)c1)c(=O)n2C [Example 106, 1-(3,4-dichlorobenzyl)-8-((1-hydroxycyclohexyl)methylamino)-3,7-dimethyl-1H-purine-2,6(3H,7H)-dione] | 1000 to 5000 nM
16 | Cn1c(NCC2(O)CCCCC2)nc2c1c(=O)n(Cc1ccc(C(F)(F)F)cc1)c(=O)n2C [Example 107, 8-((1-hydroxycyclohexyl)methylamino)-3,7-dimethyl-1-(4-(trifluoromethyl)benzyl)-1H-purine-2,6(3H,7H)-dione] | > 10000 nM

Row | SMILES | IC50
17 | Cn1c(N[C@@H]2CCCC[C@H]2O)nc2c1c(=O)n(Cc1ccc(Cl)c(Cl)c1)c(=O)n2C [Example 108, 1-(3,4-dichlorobenzyl)-8-((1R,2R)-2-hydroxycyclohexylamino)-3,7-dimethyl-1H-purine-2,6(3H,7H)-dione] | 1000 to 5000 nM
18 | Cn1c(Nc2ccc3c(c2)NC(=O)CCC3)nc2c1c(=O)n(Cc1ccc(Cl)c(Cl)c1)c(=O)n2C [Example 109, 1-(3,4-dichlorobenzyl)-3,7-dimethyl-8-(2-oxo-2,3,4,5-tetrahydro-1H-benzo[b]azepin-8-ylamino)-1H-purine-2,6(3H,7H)-dione] | 10 to 1000 nM
19 | Cn1c(N[C@@H]2CCC[C@@H]2C(=O)O)nc2c1c(=O)n(Cc1ccc(C(F)(F)F)cc1)c(=O)n2C [Example 110, (1S,2R)-2-(3,7-dimethyl-2,6-dioxo-1-(4-(trifluoromethyl)benzyl)-2,3,6,7-tetrahydro-1H-purin-8-ylamino)cyclopentanecarboxylic acid] | 1000 to 5000 nM
20 | Cn1c(N[C@@H]2CCC[C@@H]2C(=O)O)nc2c1c(=O)n(Cc1ccc(Cl)c(Cl)c1)c(=O)n2C [Example 111, (1S,2R)-2-(1-(3,4-dichlorobenzyl)-3,7-dimethyl-2,6-dioxo-2,3,6,7-tetrahydro-1H-purin-8-ylamino)cyclopentanecarboxylic acid] | 10 to 1000 nM
21 | Cn1c(NC2CC(F)(F)C2)nc2c1c(=O)n(Cc1ccc(Cl)c(Cl)c1)c(=O)n2C [Example 112, 1-(3,4-dichlorobenzyl)-8-(3,3-difluorocyclobutylamino)-3,7-dimethyl-1H-purine-2,6(3H,7H)-dione] | 1000 to 5000 nM
22 | Cn1c(N[C@@H]2CCCC[C@H]2O)nc2c1c(=O)n(Cc1ccc(C(F)(F)F)cc1)c(=O)n2C [Example 113, 8-((1R,2R)-2-hydroxycyclohexylamino)-3,7-dimethyl-1-(4-(trifluoromethyl)benzyl)-1H-purine-2,6(3H,7H)-dione] | > 10000 nM
23 | Cn1c(NCc2cnccn2)nc2c1c(=O)n(Cc1ccc(Cl)c(Cl)c1)c(=O)n2C [Example 116, 1-(3,4-dichlorobenzyl)-3,7-dimethyl-8-(pyrazin-2-ylmethylamino)-1H-purine-2,6(3H,7H)-dione] | 1000 to 5000 nM
24 | Cn1c(NCc2cccnc2)nc2c1c(=O)n(Cc1ccc(Cl)c(Cl)c1)c(=O)n2C [Example 117, 1-(3,4-dichlorobenzyl)-3,7-dimethyl-8-(pyridin-3-ylmethylamino)-1H-purine-2,6(3H,7H)-dione] | 1000 to 5000 nM
25 | Cn1c(NCc2ccncc2)nc2c1c(=O)n(Cc1ccc(Cl)c(Cl)c1)c(=O)n2C [Example 118, 1-(3,4-dichlorobenzyl)-3,7-dimethyl-8-(pyridin-4-ylmethylamino)-1H-purine-2,6(3H,7H)-dione] | 1000 to 5000 nM
26 | Cn1c(N[C@H](CO)CC2CCCCC2)nc2c1c(=O)n(Cc1ccc(C(F)(F)F)cc1)c(=O)n2C [Example 120, (S)-8-(1-cyclohexyl-3-hydroxypropan-2-ylamino)-3,7-dimethyl-1-(4-(trifluoromethyl)benzyl)-1H-purine-2,6(3H,7H)-dione] | > 10000 nM
27 | Cn1c(N[C@H](CO)CC2CCCCC2)nc2c1c(=O)n(Cc1ccc(Cl)c(Cl)c1)c(=O)n2C [Example 121, (S)-8-(1-cyclohexyl-3-hydroxypropan-2-ylamino)-1-(3,4-dichlorobenzyl)-3,7-dimethyl-1H-purine-2,6(3H,7H)-dione] | 10 to 1000 nM
28 | Cn1c(Nc2cccnn2)nc2c1c(=O)n(Cc1ccc(Cl)c(Cl)c1)c(=O)n2C [Example 122, 1-(3,4-dichlorobenzyl)-3,7-dimethyl-8-(pyridazin-3-ylamino)-1H-purine-2,6(3H,7H)-dione] | 10 to 1000 nM
29 | Cn1c(Nc2ncco2)nc2c1c(=O)n(Cc1ccc(Cl)c(Cl)c1)c(=O)n2C [Example 123, 1-(3,4-dichlorobenzyl)-3,7-dimethyl-8-(oxazol-2-ylamino)-1H-purine-2,6(3H,7H)-dione] | 5000 to 10000 nM
30 | Cn1c(NC2(CO)CCCC2)nc2c1c(=O)n(Cc1ccc(Cl)c(Cl)c1)c(=O)n2C [Example 124, 1-(3,4-dichlorobenzyl)-8-(1-(hydroxymethyl)cyclopentylamino)-3,7-dimethyl-1H-purine-2,6(3H,7H)-dione] | 10 to 1000 nM
31 | Cn1c(Nc2ccncc2)nc2c1c(=O)n(Cc1ccc(Cl)c(Cl)c1)c(=O)n2C [Example 125, 1-(3,4-dichlorobenzyl)-3,7-dimethyl-8-(pyridin-4-ylamino)-1H-purine-2,6(3H,7H)-dione] | 10 to 1000 nM
32 | Cn1c(Nc2cnccn2)nc2c1c(=O)n(Cc1ccc(Cl)c(Cl)c1)c(=O)n2C [Example 126, 1-(3,4-dichlorobenzyl)-3,7-dimethyl-8-(pyrazin-2-ylamino)-1H-purine-2,6(3H,7H)-dione] | 10 to 1000 nM
